Data: paper PMC6335200 (Journal of medicinal chemistry, 2018)

Tests used:
[1] = test system: EBOV (Kikwit isolate)
[2] = target: T1, GAK (Homo sapiens, UniProt O14976); conditions: read-out: GAK affinity Kd; cited from earlier work
T1 sequence (O14976 1-1311): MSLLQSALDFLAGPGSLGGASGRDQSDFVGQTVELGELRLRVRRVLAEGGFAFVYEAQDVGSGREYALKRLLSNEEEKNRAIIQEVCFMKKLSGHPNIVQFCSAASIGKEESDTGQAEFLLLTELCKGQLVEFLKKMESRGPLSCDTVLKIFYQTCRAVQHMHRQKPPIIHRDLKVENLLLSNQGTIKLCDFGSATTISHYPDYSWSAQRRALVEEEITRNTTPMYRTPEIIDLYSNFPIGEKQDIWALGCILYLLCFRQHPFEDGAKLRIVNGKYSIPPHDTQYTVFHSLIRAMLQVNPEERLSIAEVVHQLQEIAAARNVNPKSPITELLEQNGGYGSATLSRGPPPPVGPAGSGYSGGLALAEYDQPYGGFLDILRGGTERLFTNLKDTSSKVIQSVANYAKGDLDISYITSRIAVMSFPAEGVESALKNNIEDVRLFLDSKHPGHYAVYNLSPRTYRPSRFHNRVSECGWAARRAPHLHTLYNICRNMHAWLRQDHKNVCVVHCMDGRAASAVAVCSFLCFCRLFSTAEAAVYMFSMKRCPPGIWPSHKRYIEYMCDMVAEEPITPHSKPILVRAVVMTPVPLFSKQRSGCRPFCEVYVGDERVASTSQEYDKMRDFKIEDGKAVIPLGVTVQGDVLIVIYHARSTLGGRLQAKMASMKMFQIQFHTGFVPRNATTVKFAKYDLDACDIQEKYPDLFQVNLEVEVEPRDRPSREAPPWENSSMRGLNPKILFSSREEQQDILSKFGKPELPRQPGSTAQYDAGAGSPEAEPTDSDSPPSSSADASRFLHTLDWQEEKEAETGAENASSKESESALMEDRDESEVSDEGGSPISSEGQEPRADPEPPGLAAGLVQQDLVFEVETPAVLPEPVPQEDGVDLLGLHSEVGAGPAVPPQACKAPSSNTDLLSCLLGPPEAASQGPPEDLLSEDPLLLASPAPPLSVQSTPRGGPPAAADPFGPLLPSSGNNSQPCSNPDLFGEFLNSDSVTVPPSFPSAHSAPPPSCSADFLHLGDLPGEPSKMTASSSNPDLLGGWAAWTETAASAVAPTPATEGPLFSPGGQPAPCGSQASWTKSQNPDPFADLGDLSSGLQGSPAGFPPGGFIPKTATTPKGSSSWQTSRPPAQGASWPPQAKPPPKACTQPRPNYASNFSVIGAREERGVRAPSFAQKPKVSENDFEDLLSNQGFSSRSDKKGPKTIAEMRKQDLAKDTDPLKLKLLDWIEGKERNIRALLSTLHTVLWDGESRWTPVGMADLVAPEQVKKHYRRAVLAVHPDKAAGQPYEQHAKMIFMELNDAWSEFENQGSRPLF

[3] = test system: AP2M1 phosphorylation; experiment: AP2M1 phosphorylation by Western analysis in Huh7 cells; format: cell-based, Human; conditions: calyculin A 30 minutes before lysis
[4] = test system: EBOV (Kikwit isolate); experiment: microbe, parasite or virus in culture; conditions: Zaire ebolavirus, Huh-7, 48 h, read-out: EBOV antiviral activity EC50
[5] = test system: CHIKV (strain AF15561); format: cell-based, Chikungunya virus

SMILES	anti-EBOV activity (in words) [1]	Kd [2] [nM]	effect on AP2M1 phosphorylation (in words) [3]	EC50 [4] [nM]	effect on CHIKV infection (in words) [5]
COc1cc(-c2cnc3c(N4CCOCC4)snc3c2)ccc1N [Compound 4]	no anti-EBOV activity beyond cytotoxicity	8			
COc1cc(-c2cnc3c(N4C[C@@H](C)O[C@@H](C)C4)snc3c2)ccc1N [Compound 12r, 4-(3-(cis-2,6-Dimethylmorpholino)isothiazolo[4,3-b]pyridin-6-yl)-2-methoxyaniline]			reduced AP2M1 phosphorylation	~2000	dose-dependent decrease in CHIKV infection
